{"source": "patent US6469028B1", "about": "“Synthesis and use of retinoid compounds having negative hormone and/or anatgonist activities” (Allergan, Inc., priority 1995, dated 2002)", "key": {"[1]": {"tested_on": "cervical carcinoma patients", "assay": "Example 23: clinical study in cervical carcinoma patients with metastatic disease", "type": "in vivo, human", "conditions": "maximum tolerated dose every other day, three months to one year", "method": "Patients are divided into two groups. The first group is a control group while members of the second group are treated with AGN 193109. AGN 193109 is combined with a pharmaceutically acceptable excipient to produce a composition suitable for systemic administration, all according to techniques that will be familiar to one having ordinary skill in the art. The control group is administered a placebo formulation and the experimental group is administered with the formulation containing the AGN 193109 negative hormone. Dosing of patients is at the maximum tolerated dose and is performed every other day for a period of from three months to one year. The outcome of the study is quantified via measurement of disease-free survival over time."}, "ECE16-1 cells": {"tested_on": "ECE16-1 cells", "assay": "Example 17: EGF dependent proliferation of ECE16-1 cells", "type": "cell-based", "method": "ECE16-1 cells were seeded at a density of 1×10^4 cells per cm^2 in complete medium containing DMEM:F12 (3:1), nonessential amino acids, 5% FBS, 5 μg/ml transferring, 2 nM of 3,3′,5 triiodothyronine (thyroid hormone or “T3”), 0.1 nNM cholera toxin, 2 mM L-glutamine, 1.8×10^−4 M adenine and 10 ng/ml EGF. Cells were allowed to attach to plates overnight and then shifted to defined medium containing DMEM:F12 (3:1), 2 mM L-glutamine, nonessential amino acids, 0.1% bovine serum albumin, 1.8×10^−4 M adenine, 5 μg/ml transferring, 2 nM T3, 50 μg/ml ascorbic acid, 100 ug/ml streptomycin, 100 units/ml penicillin and 50 μg/ml gentamicin. Defined medium (DM) was supplemented with 10 ng/ml EGF. […] After three days of treatment, cells were harvested as described by Hembree et al. in Cancer Res. 54:3160 (1994) and cell numbers determined using a COULTER counter."}, "RARα": {"target": "T1, RARα (Homo sapiens, UniProt P10276)", "T1 sequence (P10276 1-462)": "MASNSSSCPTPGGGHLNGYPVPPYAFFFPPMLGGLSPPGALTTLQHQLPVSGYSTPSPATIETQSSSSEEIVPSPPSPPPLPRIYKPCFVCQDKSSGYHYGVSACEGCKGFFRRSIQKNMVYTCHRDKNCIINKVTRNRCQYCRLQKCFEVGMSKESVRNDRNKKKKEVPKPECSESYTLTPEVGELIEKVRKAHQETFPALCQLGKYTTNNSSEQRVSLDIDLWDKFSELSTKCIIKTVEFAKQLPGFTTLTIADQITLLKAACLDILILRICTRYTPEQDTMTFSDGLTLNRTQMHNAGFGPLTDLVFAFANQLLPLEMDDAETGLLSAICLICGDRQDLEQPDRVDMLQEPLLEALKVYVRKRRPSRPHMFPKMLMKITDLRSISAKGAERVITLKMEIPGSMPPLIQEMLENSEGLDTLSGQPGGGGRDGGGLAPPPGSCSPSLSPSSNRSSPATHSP", "assay": "Example 8: protease protection analysis", "type": "biochemical", "parameters": "host or cells: TNT-coupled reticulocyte lysate in vitro transcription-translation", "conditions": "ATRA and AGN 193109 100 nM, AGN 193583 1000 nM; trypsin 25, 50 or 100 μg/ml, 10 minutes", "method": "A plasmid constructed in the vector pGEM3Z (Pharmacia) and containing the RAR-α cDNA (Giguere et al. Nature 330:624 (1987)), was used in connection with the TNT-coupled reticulocyte lysate in vitro transcription-translation system (Promega) to prepare [^35S]-methionine labeled RAR-α. Limited proteolytic digestion of the labeled protein RAR-α was carried out according to the method described by Keidel et al. in Mol. Cell. Biol. 14:287 (1994). […] After ligand binding, 1 μl of appropriately concentrated trypsin was added to the mixture to give final concentrations of 25, 50 or 100 μg/ml. Samples were incubated at room temperature for 10 minutes and trypsin digestion stopped by addition of SDS-sample buffer. Samples were subjected to polyacrylamide gel electrophoresis and autoradiographed according to standard procedures."}, "CaSki cells": {"tested_on": "CaSki cells", "assay": "Example 18: proliferation of CaSki cells", "type": "cell-based", "conditions": "10^−6 M AGN 193109, no added retinoid agonist", "method": "EGF was added to the retinoid treated cultures to give a final concentration of 20 ng/ml. […] The media was replaced with fresh media and each of the two retinoid compounds, as appropriate, every day. Cell numbers were determined using a COULTER counter as described above."}, "RARβ": {"target": "T2, RARβ (Homo sapiens, UniProt P10826)", "T2 sequence (P10826 1-448 isoform P10826-2)": "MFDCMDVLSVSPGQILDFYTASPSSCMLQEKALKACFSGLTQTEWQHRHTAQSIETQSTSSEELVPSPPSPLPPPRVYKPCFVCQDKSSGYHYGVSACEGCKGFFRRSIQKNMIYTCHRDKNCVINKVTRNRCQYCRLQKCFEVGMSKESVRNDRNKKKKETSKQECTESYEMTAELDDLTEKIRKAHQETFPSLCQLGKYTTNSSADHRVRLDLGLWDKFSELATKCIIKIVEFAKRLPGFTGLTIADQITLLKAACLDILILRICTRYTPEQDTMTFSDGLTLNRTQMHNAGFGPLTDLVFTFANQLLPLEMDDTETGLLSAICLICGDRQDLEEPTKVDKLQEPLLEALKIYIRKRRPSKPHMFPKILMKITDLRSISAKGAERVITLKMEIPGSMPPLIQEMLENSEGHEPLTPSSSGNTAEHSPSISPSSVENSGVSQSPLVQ", "assay": "[3H]-ATRA displacement assay, baculovirus expressed receptor", "type": "binding", "parameters": "made in house; host or cells: baculovirus expression system", "conditions": "Table 11"}, "[2]": {"tested_on": "TPA-induced Str-AP1-CAT expression", "assay": "Example 13: anti-AP-1 activity, Str-AP1-CAT and pRS-hRARα in HeLa cells", "type": "cell-based", "conditions": "AGN 193109 alone, 10^−10 to 10^−8 M"}, "[3]": {"assay": "Example 4: retinoid-induced hypertriglyceridemia (serum triglycerides)", "type": "in vivo, rats", "method": "Male Fischer rats (6-7 weeks old, n=5) were treated by intragastric intubation with corn oil (vehicle), AGN 191659, AGN 193109 or a combination of AGN 191659 and AGN 193109. AGN 191659 and AGN 193109 were given as fine suspensions in corn oil.\nSerum was separated from blood by low speed centrifugation. Total serum triglycerides (triglycerides plus glycerol) were measured with a standard spectrophotometric endpoint assay available commercially as a kit and adapted to a 96-well plate format. Serum triglyceride levels are expressed as the mean±SD. Means were compared statistically by one-way analysis of variance followed by Dunnett's test if significant differences were found. Differences were considered significant at P<0.05."}}}
{"smiles": "Cc1ccc(C2=CCC(C)(C)c3ccc(C#Cc4ccc(C(=O)O)cc4)cc32)cc1", "note": "[Compound 60, 4-[(5,6-dihydro-5,5-dimethyl-8-(4-methylphenyl)-2-naphthalenyl)ethynyl]benzoic acid]", "values": [{"measurement": "disease-free survival", "setting": "[1]", "result": "significant increase in disease-free survival"}, {"measurement": "EGF mediated proliferation", "setting": "ECE16-1 cells; 1000 nM AGN 193109 alone", "result": "no effect on the EGF mediated proliferation increase"}, {"measurement": "antagonism of AGN 191183 mediated growth inhibition", "setting": "ECE16-1 cells; AGN 193109 10 nM with 10 nM AGN 191183", "result": "approximately 50%"}, {"measurement": "antagonism of AGN 191183 antiproliferative effect", "setting": "ECE16-1 cells; ten-fold molar excess of AGN 193109 over 10 nM AGN 191183", "result": "completely reversed the antiproliferative effect of AGN 191183"}, {"measurement": "pattern of trypsin sensitivity of labeled RAR-α after prebinding", "setting": "RARα", "result": "a protease protection pattern that was indistinguishable from that produced by prebinding of ATRA"}, {"measurement": "proliferation", "setting": "CaSki cells", "result": "inhibited proliferation of the CaSki cervical epithelial cell line"}, {"measurement": "Kd", "setting": "RARβ", "result": 2, "unit": "nM"}, {"measurement": "inhibition of AP-1 mediated reporter activity", "setting": "[2]", "result": "did not substantially inhibit"}, {"measurement": "serum triglycerides versus control", "setting": "[3]; AGN 193109 with AGN 191659 at molar ratios of 1:1 and 5:1", "result": "reduced serum triglycerides to levels that were not significantly different from control"}, {"measurement": "Serum Triglycerides", "setting": "[3]; group B: AGN 193109 19.6 mg/kg oral alone, male Fischer rats", "result": "52.4 ± 6.3", "unit": "mg/dL"}, {"measurement": "Serum Triglycerides", "setting": "[3]; group D: AGN 193109 3.9 mg/kg + AGN 191659 3.7 mg/kg oral", "result": "55.7 ± 14.7", "unit": "mg/dL"}, {"measurement": "Serum Triglycerides", "setting": "[3]; group E: AGN 193109 19.6 mg/kg + AGN 191659 3.7 mg/kg oral", "result": "72.7 ± 8.9", "unit": "mg/dL"}]}
